Refractive index, mass density and speed of sound data for two molecules are collected here from the NIST ThermoML archive (doi:10.1007/s10765-010-0773-1).

The nature of data set [1]: refractive index (Na D-line) (dimensionless). Particulars: 298.15 K; 101.33 kPa; Liquid; Standard Abbe refractometry.
Data set [2] can be described thus: xn = mol fraction of the nth substance listed. The settings on record: 101 kPa, Liquid, x2 = 0; for mass density: Vibrating tube method; for speed of sound: Pulse-echo method.

± gives the expanded uncertainty stated by the source.

Turning to `BrCBr` [dibromomethane], in data set [1], the refractive index came to 1.3851 ± 0.0011.
Consider `CCCCCCC` [heptane] + BrCBr, for which the mass density in data set [2] (288.15 K) is given as 688.15 ± 0.25 kg/m3; in data set [2] (293.15 K), 683.94 ± 0.25 kg/m3; in data set [2] (298.15 K) it was 679.7 ± 0.25 kg/m3; in data set [2] (303.15 K) it was 675.44 ± 0.25 kg/m3; in data set [2] (308.15 K), 671.15 ± 0.25 kg/m3; in data set [2] (313.15 K), 666.83 ± 0.25 kg/m3. In addition, in data set [2] (318.15 K), the mass density is given as 662.48 ± 0.25 kg/m3. The speed of sound was 1152.5 ± 1.6 m/s in data set [2] (292.87 K); 1129.7 ± 1.6 m/s in data set [2] (298.14 K); 1108.2 ± 1.6 m/s in data set [2] (303.12 K); 1086.8 ± 1.6 m/s in data set [2] (308.1 K); 1064.7 ± 1.6 m/s in data set [2] (313.27 K).

The term refractive index denotes a measure of how strongly the sample bends light. Broadly, the mass density is mass per unit of volume. The term speed of sound denotes the propagation velocity of pressure waves in the medium.
